Holding throughout (format): biochemical
For assay [1], the target named is T1, Zea mays EPSPS variant Zm-P107L (Zea mays, UniProt O24566, P106L).
T1 construct: native maize plus P107L; E. coli BL21(DE3), Ni-NTA purified
Kind of assay: Rapid two-rate method for (kcat/KM)*KI, Zm-P107L. From the text:
There are several practical considerations for accurately estimating (kcat/KM)*KI with the rapid method. […] 2) The inhibitor concentration must be adjusted so as to obtain a degree of inhibition that minimally amplifies the error in the term v0-vi in Equation 3. If inhibition is too little, v0-vi will be small, and the error in the multiplier vi×v0/(v0-vi) will be large. […] 3) Substrate concentration should be set at the approximate KM of the parental variant(s), subject to the sensitivity of the assay. High substrate concentration obscures sensitivity to the inhibitor and reduces stringency for capturing improvements in KM. Depending on the necessity for speed, there exists opportunity for customizing enzyme and inhibitor concentrations. […] The rapid method was repeated for those and obtained data that correlated better with data obtained by substrate saturation analysis. For screening purposes however, that correlation step is not necessary. Conditions can be set so that variants with a pre-determined minimal fitness level are accurately quantified.
In Table 15, parameters above the heavy line for the rapid method were obtained under standard conditions. For variants shown below the heavy line, the rapid analysis was repeated with enzyme or glyphosate concentrations adjusted as needed to generate sufficient signal within the limits for linear initial rates.

Assay [2] has as its target Zea mays EPSPS variant 241A 278G (Zea mays, UniProt O24566, K240A/T277G). Put plainly: EPSPS reaction rate with or without 10 uM glyphosate, 241A 278G. Further: 50 µM PEP and S3P. Particulars: pH 7; read-out: Reaction rate with 10 μM glyph, % no glyph.
In assay [3] the target is Zea mays EPSPS variant 4N (Zea mays, UniProt O24566, A3N). Put plainly: EPSPS reaction rate with or without 10 uM glyphosate, 4N. Further: 50 µM PEP and S3P. The note with it: pH 7; read-out: Reaction rate with 10 μM glyph, % no glyph.
In assay [4] the target is Zea mays EPSPS variant 771-C2 (A4W, H54M, L98C, G102A, K173R, I208L, K243E, E302S, T361S, E391P, D402G, A416G, V438R, S440R, T441Q, F442V), SEQ ID NO:4 (Zea mays, UniProt O24566, A3W/A415G/D401G/E301S/E390P/F441V/G101A/H53M/I207L/K172R/K242E/L97C/S439R/T360S/T440Q/V437R). Put plainly: EPSPS substrate saturation kinetics, 771-C2. The protocol: EPSPS activity was determined by quantifying the phosphate generated from the EPSPS reaction. Release of inorganic phosphate was coupled to reaction with 2-amino-6-mercapto-7-methylpurine ribonucleoside, catalyzed by purine-nucleoside phosphorylase (M R Webb, Proc. Natl. Acad. Sci. 89:4884-4887, 1992). The absorbance change that occurs was monitored at 360 nm, where the extinction is 11,200 M^−1 cm^−1, with a Spectramax plate reader (Molecular Devices). To determine kinetic parameters, the varied substrate was present at seven concentrations (the eighth being the blank, containing no substrate) ranging from 4 to 400 uM and the unvaried substrate present at saturation. […] Reactions were monitored with a Spectramax plate reader. […] KI was then calculated from the following form of the Michaelis-Menten equation for competitive inhibition: KI=KM[I]/(KM app−KM) KM approximates the dissociation constant of the enzyme-substrate complex while kcat is the rate of conversion of substrate to product when the substrate concentration is saturating. kcat/KM is a widely accepted parameter for catalytic efficiency when substrate concentration is low (˜KM). […] The parameter kcat/KM×KI is used to quantify both catalytic efficiency and insensitivity and thus the overall fitness of the enzyme. […]

In assay [5] the target is T2, Zea mays EPSPS variant Zm-T103A (Zea mays, UniProt O24566, T102A).
T2 construct: native maize plus T103A; E. coli BL21(DE3), Ni-NTA purified
T2 sequence (O24566 with tags, fused parts or gaps T102A): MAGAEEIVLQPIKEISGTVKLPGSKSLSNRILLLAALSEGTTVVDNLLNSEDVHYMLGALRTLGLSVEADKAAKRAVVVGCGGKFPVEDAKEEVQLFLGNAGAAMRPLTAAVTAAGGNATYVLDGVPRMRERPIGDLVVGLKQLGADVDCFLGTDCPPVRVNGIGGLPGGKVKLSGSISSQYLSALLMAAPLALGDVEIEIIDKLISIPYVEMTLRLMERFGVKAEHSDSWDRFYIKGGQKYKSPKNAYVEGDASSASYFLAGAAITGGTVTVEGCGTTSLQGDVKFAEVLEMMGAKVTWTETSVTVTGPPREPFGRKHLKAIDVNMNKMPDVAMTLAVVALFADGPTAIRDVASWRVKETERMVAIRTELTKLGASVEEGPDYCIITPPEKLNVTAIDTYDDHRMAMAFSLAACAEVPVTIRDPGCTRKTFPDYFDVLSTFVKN
Put plainly: Substrate saturation kinetic analysis with glyphosate, Zm-T103A.

Molecules are shown by their SMILES. pKi: −log10 of the molar value.

T1 sequence (O24566 entry or part of it P106L): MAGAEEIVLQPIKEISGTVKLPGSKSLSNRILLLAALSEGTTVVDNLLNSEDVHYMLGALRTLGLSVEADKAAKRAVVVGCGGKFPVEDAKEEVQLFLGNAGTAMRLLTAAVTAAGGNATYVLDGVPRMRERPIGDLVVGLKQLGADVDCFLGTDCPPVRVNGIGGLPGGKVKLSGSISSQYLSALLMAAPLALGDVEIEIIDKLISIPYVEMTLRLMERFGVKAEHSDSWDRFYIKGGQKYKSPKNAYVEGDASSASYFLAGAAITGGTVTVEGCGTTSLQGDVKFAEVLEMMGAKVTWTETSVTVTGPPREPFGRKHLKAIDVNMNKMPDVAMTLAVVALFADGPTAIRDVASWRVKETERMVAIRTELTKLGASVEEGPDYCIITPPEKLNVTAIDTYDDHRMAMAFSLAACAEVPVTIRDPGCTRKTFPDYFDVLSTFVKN
Chain of Zea mays EPSPS variant 241A 278G (O24566 entry or part of it K240A/T277G): as the sequence (O24566 entry or part of it P106L) above, with L107P, K241A, T278G counted along it
Chain of Zea mays EPSPS variant 4N (O24566 entry or part of it A3N): as the sequence (O24566 entry or part of it P106L) above, with A4N, L107P counted along it

Regarding `O=C(O)CNCP(=O)(O)O` [glyphosate, N-phosphonomethylglycine], the “(kcat/KM)*KI” value stood at 91 in assay [1] (rapid method repeated, [E] 0.014 uM, [Gly] 10 uM); 111 in assay [1] (rapid method, [E] 0.07 uM, [Gly] 1000 uM); 5800 in assay [4] (PEP as substrate, glyphosate as inhibitor); 321 in assay [5] (substrate saturation, Zm-T103A). In addition, the activity at 10 µM worked out at 3.75% in assay [2] and 7.56% in assay [3]. The pKi in assay [4] is 3.46; in assay [5], 3.68.

The term pKi denotes the Ki on a negative log10 scale, so that one unit is a factor of ten.

These data come from patent publication US11549123B2, “Plant EPSP synthases and methods of use” (PIONEER HI-BRED INTERNATIONAL, INC., priority 2015, dated 2023).
